The values below come from PMC6142691, “Cannabidiol enhances morphine antinociception, diminishes NMDA-mediated seizures and reduces stroke damage via the sigma 1 receptor” (Molecular Brain, 2018).

What is called pEC50 is the negative decadic logarithm of the EC50, by convention in mol/L. What is called pKi is −log10 of the Ki, conventionally taken in molar units. Read a high pKi as a small Ki.

pEC50, pKi: −log10 of the molar value.

For test [1], the target named is T1, sigma 1 receptor (σ1R) (Mus musculus, UniProt O55242). Put plainly: in vitro pull-down: disruption of recombinant σ1R-NR1 complex, immunoblot. Format: binding. The arrangement: gene Sigmar1; murine full-length (1–223) σ1R, recombinant from E. coli, GST-free; with NMDAR NR1 subunit C-terminal region (residues 827–938).
Test [2] concerns the target T1, sigma 1 receptor (σ1R). The experiment in a line: in vitro pull-down: reversal of progesterone/CBD-induced disruption of recombinant σ1R-NR1 complex. The class given is biochemical. The arrangement: gene Sigmar1; murine full-length (1–223) σ1R, recombinant from E. coli, GST-free; with NMDAR NR1 subunit C-terminal region (residues 827–938).
The target of test [3] is T1, sigma 1 receptor (σ1R). Put plainly: biochemical. Details: gene Sigmar1.

T1 sequence (O55242 whole entry, the tested form may be a part): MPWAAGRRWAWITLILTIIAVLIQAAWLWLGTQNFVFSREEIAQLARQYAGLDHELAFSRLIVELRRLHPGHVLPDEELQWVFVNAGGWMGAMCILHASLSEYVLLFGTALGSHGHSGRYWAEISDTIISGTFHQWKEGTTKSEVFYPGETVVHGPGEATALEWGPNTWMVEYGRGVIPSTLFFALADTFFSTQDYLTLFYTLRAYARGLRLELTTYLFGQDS
T1 sequence (P35438 827-938 partner): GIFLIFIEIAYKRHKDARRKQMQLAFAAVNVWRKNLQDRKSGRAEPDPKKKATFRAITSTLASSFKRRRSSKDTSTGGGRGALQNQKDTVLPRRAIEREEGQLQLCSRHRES

As for `CC(=O)[C@H]1CC[C@H]2[C@@H]3CCC4=CC(=O)CC[C@]4(C)[C@H]3CC[C@]12C` [Progesterone], the pEC50 in test [1] is approximately 10.52.
In the case of `O=C(OCCN1CCOCC1)C1(c2ccccc2)CCCCC1` [PRE084], the “in vitro pull-down: reversal of progesterone/CBD-induced disruption of recombina” value in test [2] is “PPCC, PRE084 and 4-IBP did not alter σ1R-NR1 associations but reduced the capacity of progesterone and CBD”.
Same read-out and setting: in the case of `O=C(NC1CCN(Cc2ccccc2)CC1)c1ccc(I)cc1` [4-IBP] it was “PPCC, PRE084 and 4-IBP did not alter σ1R-NR1 associations but reduced the capacity of progesterone and CBD”.
In the case of `CN1CCN(CCc2ccc(Cl)c(Cl)c2)CC1` [BD1063], in test [1], the pEC50 is approximately 10.52.
`COC(=O)[C@]1(c2ccc(C)cc2)C[C@@H]1CN1CCC(O)(c2ccccc2)CC1` (racemic) [PPCC] gave a negative-log Ki (pKi) in test [3] of 10.22.
On to `C=C(C)[C@@H]1CCC(C)=C[C@H]1c1c(O)cc(CCCCC)cc1O` [CBD, Cannabidiol], for which, in test [1], the pEC50 was approximately 10.00.
